By MIC is commonly meant the least concentration at which growth counts as inhibited. High values mean a need for much substance, low ones inhibition by little substance.

Our source for the MIC values is DBAASP.

≈ marks a conversion by molar mass, not a printed value.

Among the test systems are Escherichia coli W160-37; Bacillus cereus AS1.126; Escherichia coli AS1.349; Serratia sp. ATCC 39006.
Experiment in all cases: ≥ marks a high value that may be exact or a test limit, other limits are often not marked, values filed in µg/mL are converted to µM
Assay [1] deals with Pseudomonas putida NCIM 2102.
The test system of assay [2] is Saccharomyces cerevisiae ATCC 8530.
Assay [3] concerns Staphylococcus aureus ATCC 8530.
Assay [4] concerns Escherichia coli DSM 1103.
Assay [5] concerns Staphylococcus aureus ATCC 25923.
In assay [6] the test system is Klebsiella pneumoniae DSM 681.
For assay [7], the system named is Streptococcus pneumoniae DSM 11865.
Assay [8] concerns Pseudomonas aeruginosa DSM 1128.
Assay [9] relates to Staphylococcus aureus AS1.72.
Assay [10] has as its system Proteus mirabilis CICC 22931.
Assay [11] deals with Klebsiella pneumoniae subsp. pneumoniae CGMCC 1.176.
Assay [12] concerns Enterococcus faecalis CGMCC 1.595.
In assay [13] the test system is Staphylococcus epidermidis.
In assay [14] the test system is Enterobacter cloacae CGMCC 1.58.
Assay [15] has as its system Staphylococcus epidermidis CICC 23664.
In assay [16] the test system is Enterococcus faecium CGMCC 1.2334.
Assay [17] relates to Pseudomonas aeruginosa 0108.
The subject of assay [18] is Pseudomonas aeruginosa CGMCC 1.860.
In assay [19] the test system is Enterococcus faecalis ATCC 29212.
Assay [20] deals with Candida albicans ATCC 10231.
For assay [21], the system named is Bacillus subtilis KCTC 3038.
Assay [22] has as its system Micrococcus luteus ATCC 10240.
Assay [23] relates to Pseudomonas aeruginosa ATCC 27853.
In assay [24] the test system is Escherichia coli ATCC 27325.
The subject of assay [25] is Cryptococcus neoformans ATCC 34881.
The subject of assay [26] is Salmonella typhimurium KCTC 2370.
Assay [27] relates to Staphylococcus aureus ATCC 15752.
Assay [28] relates to Saccharomyces cerevisiae ATCC 44774.
The subject of assay [29] is Streptococcus agalactiae ATCC 12386.
Assay [30] has as its system Salmonella enterica subsp. enterica serovar Typhimurium ATCC 14028.
Assay [31] has as its system Staphylococcus aureus ATCC 43330.
Assay [32] has as its system Proteus vulgaris ATCC 49132.
For assay [33], the system named is Escherichia coli ATCC 25922.
Assay [34] relates to Micrococcus luteus ATCC 49732.
The test system of assay [35] is Klebsiella pneumoniae ATCC 700603.
For assay [36], the system named is Neisseria gonorrhoeae ATCC 49226.
For assay [37], the system named is Shigella sonnei ATCC 25931.
The subject of assay [38] is Staphylococcus saprophyticus ATCC 15305.
Assay [39] concerns Staphylococcus epidermidis ATCC 12228.

Regarding `CC[C@H](C)[C@@H]1NC(=O)[C@@H]2CCCN2C(=O)[C@H](CC(C)C)NC(=O)[C@@H]2CCCN2C(=O)[C@H]([C@@H](C)CC)NC(=O)[C@H](C)NC(=O)[C@H](Cc2ccc(O)cc2)NC(=O)[C@@H](NC(=O)[C@@H](NC(=O)[C@@H](N)CCCN=C(N)N)C(C)C)CSSC[C@@H](C(N)=O)NC1=O` [RVCYAIPLPIC], the minimum inhibitory concentration (MIC) is no less than 48.1 µM in [1], no less than 48.1 µM with Escherichia coli W160-37, no less than 80.2 µM in assay [2] and no less than 40.1 µM in assay [3].

For the molecule `CC(C)C[C@H](NC(=O)[C@@H](NC(=O)[C@H](C)NC(=O)[C@H](C)NC(=O)[C@H](CCCN=C(N)N)NC(=O)CNC(=O)CNC(=O)[C@H](CCCN=C(N)N)NC(=O)[C@@H](NC(=O)[C@H](CCCN=C(N)N)NC(=O)[C@H](C)NC(=O)[C@H](Cc1ccc(O)cc1)NC(=O)[C@H](Cc1ccc(O)cc1)NC(=O)[C@H](CCCCN)NC(=O)[C@H](CCC(N)=O)NC(=O)[C@@H](N)CC(C)C)C(C)C)C(C)C)C(=O)N[C@@H](CO)C(=O)O` [LQKYYARVRGGRAAVLS], the MIC in [4] is no less than 157 µM; in assay [5], greater than 157 µM; in assay [6], no less than 157 µM; in [7], no less than 157 µM; in [8], no less than 157 µM.

With `CC[C@H](C)[C@H](NC(=O)[C@H](CCCCN)NC(=O)[C@H](CO)NC(=O)[C@H](Cc1c[nH]c2ccccc12)NC(=O)[C@@H](NC(=O)[C@H](CCCCN)NC(=O)[C@H](CCCCN)NC(=O)[C@@H](N)Cc1c[nH]c2ccccc12)[C@@H](C)CC)C(=O)N[C@@H](CCCCN)C(=O)N[C@@H](CCCCN)C(=O)N[C@@H](CC(C)C)C(=O)N[C@@H](CC(C)C)C(=O)N[C@@H](CCCCN)C(N)=O` [WKKIWSKIKKLLK], the minimum inhibitory concentration (MIC) stood at 3.13 µM (≈ 5.32 µg/mL) in assay [9]; 6.25 µM (≈ 10.6 µg/mL) in assay [10]; 25 µM (≈ 42.5 µg/mL) in [11]; 1.56 µM (≈ 2.65 µg/mL) in assay [12]; 3.12 µM (≈ 5.3 µg/mL) in assay [13]; 3.13 µM (≈ 5.32 µg/mL) in assay [14]. Further, the MIC in assay [15] was found to be 1.56 µM (≈ 2.65 µg/mL); in [16], 3.13 µM (≈ 5.32 µg/mL); in the assay on Bacillus cereus AS1.126, 3.13 µM (≈ 5.32 µg/mL); in the assay on Escherichia coli AS1.349 it was 6.25 µM (≈ 10.6 µg/mL); in [17], 12.5 µM (≈ 21.2 µg/mL); in assay [18], 6.25 µM (≈ 10.6 µg/mL).

`CC(C)[C@H](NC(=O)[C@H](CCCCN)NC(=O)[C@H](CCC(=O)O)NC(=O)[C@H](CCCCN)NC(=O)[C@@H](NC(=O)[C@@H](NC(=O)[C@H](CCC(N)=O)NC(=O)[C@@H](NC(=O)[C@@H](NC(=O)[C@@H]1CCCN1C(=O)[C@H](CCCN=C(N)N)NC(=O)[C@@H](NC(=O)[C@@H](NC(=O)[C@@H](N)CCCN=C(N)N)C(C)C)C(C)C)C(C)C)C(C)C)C(C)C)C(C)C)C(=O)N[C@@H](CCCN=C(N)N)C(=O)O` [RVVRPVVQVVKEKVR]: the MIC in [19] is greater than 35.7 µM; in assay [20] it was 35.7 µM (≈ 64 µg/mL); in [21] it was no less than 35.7 µM; in [22], no less than 35.7 µM; in assay [23], greater than 35.7 µM; in assay [24], no less than 35.7 µM. Also, the MIC in assay [25], in assay [26], in assay [27] and in [28] was no less than 35.7 µM each time.

Consider `CC[C@H](C)[C@H](NC(=O)CNC(=O)[C@H](C)NC(=O)[C@H](C)NC(=O)[C@@H](NC(=O)[C@@H](NC(=O)[C@H](CC(N)=O)NC(=O)[C@@H](NC(=O)[C@H](C)NC(=O)[C@@H](NC(=O)[C@@H]1CCCN1C(=O)[C@@H](NC(=O)[C@H](CC(C)C)NC(=O)[C@@H]1CCCN1C(=O)[C@H](Cc1c[nH]c2ccccc12)NC(=O)[C@H](Cc1ccccc1)NC(=O)[C@H](CCCN=C(N)N)NC(=O)[C@H](CCCCN)NC(=O)[C@@H](NC(=O)[C@@H](N)CCCN=C(N)N)C(C)C)C(C)C)C(C)C)[C@@H](C)CC)[C@@H](C)O)C(C)C)C(=O)N[C@@H](CC(N)=O)C(=O)N[C@@H](CC(C)C)C(=O)N[C@@H](Cc1ccc(O)cc1)C(=O)N[C@@H](CCCCN)C(=O)N[C@@H](C)C(=O)N[C@H](C(=O)N[C@@H](CCCN=C(N)N)C(=O)N[C@@H](CCCN=C(N)N)C(=O)N[C@@H](CCCCN)C(N)=O)[C@@H](C)CC` [RVKRFWPLVPVAINTVAAGINLYKAIRRK], for which the minimal inhibitory concentration (MIC) in assay [29] amounted to 1.4 µM (≈ 4.7 µg/mL); in [30], 2.15 µM (≈ 7.21 µg/mL); in assay [19], 0.934 µM (≈ 3.13 µg/mL); in assay [5], 1.22 µM (≈ 4.1 µg/mL); in [31], 3.73 µM (≈ 12.5 µg/mL); in assay [32], 2.49 µM (≈ 8.33 µg/mL). In addition, the minimal inhibitory concentration (MIC) was 0.934 µM (≈ 3.13 µg/mL) in [33]; 0.63 µM (≈ 2.11 µg/mL) in [34]; 0.63 µM (≈ 2.11 µg/mL) against Serratia sp. ATCC 39006; 2.15 µM (≈ 7.21 µg/mL) in [35]; 2.49 µM (≈ 8.33 µg/mL) in assay [36]; 0.537 µM (≈ 1.8 µg/mL) in [37]. For the same molecule, the results for the MIC in [38] and in assay [39] were 1.22 µM (≈ 4.1 µg/mL) and 2.49 µM (≈ 8.33 µg/mL), respectively.
